Measured values from publication PMC11864979, “First-in-class ultralong-target-residence-time p38α inhibitors as a mitosis-targeted therapy for colorectal cancer” (Nature Cancer, 2025).
Where “and” joins values, the source holds several entries; their conditions need not be identical. Equal values may be shown once.

How the values were obtained:
LS 174T = experiment: cell viability in human CRC cell line LS 174T; format: cell-based; details: 4 d
Description: The cells were cultured at 37 °C and 7% CO2 with RPMI (KAP^2D cells) or DMEM (other cell lines), supplemented with 10% FBS and penicillin–streptomycin. […] No commonly misidentified cell lines were used. Mycoplasma contamination was excluded by a PCR-based analysis.

KAP^2D cells [1] = experiment: annexin V apoptosis analysis in KAP^2D cells; format: cell-based, mouse; details: Fig. 5a
Description: Apoptosis was analyzed with the FITC annexin V apoptosis detection kit (Biolegend). Both measurements were performed with FACS Canto II (BD) and physical parameters were used to exclude cell debris and cell doublets.

KAP^2D cells [2] = experiment: quantification of viable KAP^2D cells over time (cell-doubling assay); format: cell-based, mouse; details: Fig. 4i
Description: The treatment with doxycycline (5 µg ml^−1), pharmacological inhibitors or corresponding volumes of DMSO was started 24 h after plating. […] Cell viability was measured by means of CellTiter-Glo 3D or CellTiter-Glo 2.0 reagent (Promega) according to the manufacturers’ instructions and the Infinite M Plex reader (Tecan, i-control version 3.9.1 software). Results were normalized to vehicle (DMSO) or to shNC. For cell-doubling assays, the cell number was quantified at the corresponding time points using Guava EasyCyte flow cytometer (Luminex, CytoSoft v5.2 software).

PDO15 = experiment: cell viability in patient-derived CRC organoids PDO15; format: cell-based, human
Description: (§1) For in vitro treatment studies, organoids were mechanically dissociated and digested using TrypLE supplemented with 100 µg ml^−1 DNaseI and 10.5 µM Y-27632 dihydrochloride (Invitrogen) at 37 °C. A total of 1,000–2,000 single cells were plated per well in white 96-well plates (Greiner) in culture medium containing 10% GFR Matrigel or Cultrex BME. The treatment with doxycycline (5 µg ml^−1), pharmacological inhibitors or corresponding volumes of DMSO was started 24 h after plating. Doxycycline was obtained from Sigma-Aldrich. […] Cell viability was measured by means of CellTiter-Glo 3D or CellTiter-Glo 2.0 reagent (Promega) according to the manufacturers’ instructions and the Infinite M Plex reader (Tecan, i-control version 3.9.1 software). Results were normalized to vehicle (DMSO) or to shNC. For cell-doubling assays, the cell number was quantified at the corresponding time points using Guava EasyCyte flow cytometer (Luminex, CytoSoft v5.2 software).

PDO13 = experiment: cell viability in patient-derived CRC organoids PDO13; format: cell-based, human
Description: as §1

HCT 116 = experiment: cell viability in human CRC cell line HCT 116; format: cell-based; details: 4 d
Description: To generate KAP^2D cells, KAP organoids were isolated from Matrigel, fragmented by mechanical dissociation and plated without any extracellular matrix on common cell culture dishes. Phoenix-Eco packaging cells (CRL-3214), HCT-15 (CCL-225), HCT 116 (CCL-247), COLO 205 (CCL-222), LS 174T (CL-188), RKO (CRL-2577) and HT-29 (HTB-38) were obtained from the American Type Culture Collection. The cells were cultured at 37 °C and 7% CO2 with RPMI (KAP^2D cells) or DMEM (other cell lines), supplemented with 10% FBS and penicillin–streptomycin. KAP^2D cells were authenticated using PCR (Kras locus and Trp53 locus). Phoenix-Eco packaging cells and HCT-15, HCT 116, COLO 205, LS 174T, RKO and HT-29 cells were authenticated by the provider using short tandem repeat profiling. No commonly misidentified cell lines were used. Mycoplasma contamination was excluded by a PCR-based analysis.
as §1

**Q.** With `O=C(NCCN1CCOCC1)c1ccc2c(c1)C(=O)c1ccc(Nc3ccc(F)c(NC(=O)c4ccccc4)c3)cc1CC2` [Compound 1639] as the compound, how does the “LS 174T Cell viability (%)” value (LS 174T; 0.0137 µM) read?
**A.** 96.96% and 98.13% and 93.47% and 92.87% and 103.70%

**Q.** What about the “LS 174T Cell viability (%)” value (LS 174T; 0.0412 µM) of the same compound?
**A.** 88.17% and 87.93% and 84.72% and 87.30% and 86.06%

**Q.** And the “LS 174T Cell viability (%)” value (LS 174T; 0.1235 µM)?
**A.** 73.32% and 74.11% and 80.93% and 80.83% and 84.53%

**Q.** What about the “LS 174T Cell viability (%)” value (LS 174T; 0.3704 µM) of the same compound?
**A.** 72.52% and 70.49% and 77.50% and 75.15% and 72.31%

**Q.** What about the “LS 174T Cell viability (%)” value (LS 174T; 1.1111 µM) of the same compound?
**A.** 73.18% and 76.23% and 79.82% and 74.44% and 73.58%

**Q.** What about the “LS 174T Cell viability (%)” value (LS 174T; 3.3333 µM) of the same compound?
**A.** 64.63% and 65.58% and 65.84% and 62.28% and 62.47%

**Q.** And the “LS 174T Cell viability (%)” value (LS 174T; 10.0000 µM)?
**A.** 22.96% and 24.63% and 23.18% and 23.96% and 22.77%

**Q.** And the viability at 0.0137 µM (LS 174T; Homo sapiens, LS174T, 96 h, 0.0137 µM, read-out: LS 174T Cell viability (%))?
**A.** 95%

**Q.** And the viability at 0.0412 µM (LS 174T; Homo sapiens, LS174T, 96 h, 0.0412 µM, read-out: LS 174T Cell viability (%))?
**A.** 81.8%

**Q.** What about the viability at 0.1235 µM (LS 174T; Homo sapiens, LS174T, 96 h, 0.1235 µM, read-out: LS 174T Cell viability (%)) of the same compound?
**A.** 73.7%

**Q.** And the viability at 0.3704 µM (LS 174T; Homo sapiens, LS174T, 96 h, 0.3704 µM, read-out: LS 174T Cell viability (%))?
**A.** 74.4%

**Q.** What about the viability at 1.1111 µM (LS 174T; Homo sapiens, LS174T, 96 h, 1.1111 µM, read-out: LS 174T Cell viability (%)) of the same compound?
**A.** 77.1%

**Q.** And the viability at 3.3333 µM (LS 174T; Homo sapiens, LS174T, 96 h, 3.3333 µM, read-out: LS 174T Cell viability (%))?
**A.** 68.9%

**Q.** What about the viability at 10 µM (LS 174T; Homo sapiens, LS174T, 96 h, 10.0000 µM, read-out: LS 174T Cell viability (%)) of the same compound?
**A.** 24.4%

**Q.** What about the “Annexin V+ cells” value (KAP^2D cells [1]; 1 d of treatment) of the same compound?
**A.** 8.73% and 12.40% and 11.20% and 14.50% and 15.70% and 14.40%

**Q.** And the “Annexin V+ cells” value (KAP^2D cells [1]; 2 d of treatment)?
**A.** 12.80% and 17.60% and 14.40% and 15.50% and 16.80% and 17.40%

**Q.** What about the “Annexin V+ cells” value (KAP^2D cells [1]; 3 d of treatment) of the same compound?
**A.** 16.10% and 14.80% and 15.90% and 19.00% and 17.40% and 18.40%

**Q.** And the “Annexin V+ cells” value (KAP^2D cells [1]; 4 d of treatment)?
**A.** 26.70% and 25.10% and 21.50% and 18.80% and 17.30% and 19.40%

**Q.** What about the Number of cells (KAP^2D cells [2]; 0 h of treatment) of the same compound?
**A.** 41307.05 and 44263.95 and 43595.63 and 48502.24 and 40389.64

**Q.** What about the Number of cells (KAP^2D cells [2]; 12 h of treatment) of the same compound?
**A.** 90535.27 and 109902.14 and 96345.55 and 78642.86 and 78628.27 and 80020.34

**Q.** And the Number of cells (KAP^2D cells [2]; 24 h of treatment)?
**A.** 118591.59 and 122111.73 and 126637.09 and 105052.10 and 107245.70 and 108446.50

**Q.** What about the Number of cells (KAP^2D cells [2]; 36 h of treatment) of the same compound?
**A.** 147204.34 and 141762.38 and 180655.61 and 129977.80 and 144707.50 and 146373.80

**Q.** What about the Number of cells (KAP^2D cells [2]; 48 h of treatment) of the same compound?
**A.** 236686.34 and 244575.91 and 256532.61 and 222624.00 and 201311.80 and 207320.10

**Q.** And the Number of cells (KAP^2D cells [2]; 60 h of treatment)?
**A.** 438717.24 and 412186.50 and 425643.09 and 324012.80 and 330875.70 and 354806.50

**Q.** What about the viability at 0.5 µM (PDO15; Homo sapiens, 96 h, PDO15, 0.5 µM, 4 d, read-out: Cell viability (%)) of the same compound?
**A.** 101%

**Q.** What about the viability at 1 µM (PDO15; Homo sapiens, 96 h, PDO15, 1 µM, 4 days, read-out: Cell viability (%)) of the same compound?
**A.** 87.7%

**Q.** What about the “Cell viability (%)” value (PDO15; PDO15, 0.5 µM, 4 d, 0.5 µM) of the same compound?
**A.** 102.64% and 92.86%

**Q.** What about the “Cell viability (%)” value (PDO15; PDO15, 1 µM, 4 days, 1 µM) of the same compound?
**A.** 91.79% and 86.01%

**Q.** And the viability at 0.5 µM (PDO13; Homo sapiens, 96 h, PDO13, 0.5 µM, 4 d, read-out: Cell viability (%))?
**A.** 93.8%

**Q.** And the viability at 1 µM (PDO13; Homo sapiens, 96 h, PDO13, 1 µM, 4 days, read-out: Cell viability (%))?
**A.** 84.5%

**Q.** And the “Cell viability (%)” value (PDO13; PDO13, 0.5 µM, 4 d, 0.5 µM)?
**A.** 111.59% and 96.20%

**Q.** And the “Cell viability (%)” value (PDO13; PDO13, 1 µM, 4 days, 1 µM)?
**A.** 86.80% and 77.48%

**Q.** What about the “HCT 116 Cell viability (%)” value (HCT 116; 0.0137 µM) of the same compound?
**A.** 91.07% and 92.02% and 85.19% and 84.20% and 84.23%

**Q.** And the “HCT 116 Cell viability (%)” value (HCT 116; 0.0412 µM)?
**A.** 81.63% and 80.34% and 77.04% and 76.76% and 74.10%

**Q.** What about the “HCT 116 Cell viability (%)” value (HCT 116; 0.1235 µM) of the same compound?
**A.** 88.84% and 91.52% and 85.54% and 79.01% and 86.05%

**Q.** And the “HCT 116 Cell viability (%)” value (HCT 116; 0.3704 µM)?
**A.** 94.73% and 98.85% and 85.83% and 87.08% and 84.20%
